What was measured:
Format in all cases: biochemical
Conditions in all cases: read-out: Activity of the protein kinase when treated with compound I-1 (% control)
[1] = target: HIPK3 (Homo sapiens, UniProt Q9H422); test: Protein kinase assay ([γ-32P] ATP), HIPK3
Method: (§1) In another set of experiments, the activities of the compounds described herein against various protein kinases were determined according to the methods reported in Hastie et al., Nature Protocols, 2006, 1, 968-971.
(§2) Enzyme dilution buffer. This buffer consisted of 50 mM Tris-HCl, pH 7.5, 0.1 mM EGTA, 1 mg ml^−1 bovine serum albumin and 0.1% (vol/vol) 2-mercaptoethanol.
(§3) 10× concentrated assay buffer. An assay buffer of 500 mM Tris-HCl, pH 7.5, 1 mM EGTA, and 100 mM magnesium acetate was used for assay of a wide variety of protein kinases. In some experiments, other cofactors were included (e.g., calcium ions and calmodulin were included for assay of calcium-calmodulindependent protein kinases).
(§4) 1 mM [γ-^32P] ATP. The specific activity of the [γ-^32P] ATP solution was 1×10^5 to 1×10^6 c.p.m. per nmol depending on what was needed to produce an optimal signal/noise ratio. […] To measure the concentration of ATP, a sample of such a stock solution was diluted to 20 μM, and the absorbance of the diluted sample was measured at 259 nm. The absorbance of a 20-μM stock solution of ATP at 259 nm was about 0.31. […] ATP to produce a radioactivity of 1×10^5 to 1×10^6 c.p.m. per nmol. […]
(§5) 13) Measure radioactivity in the samples by Cerenkov counting (e.g., without liquid scintillation fluid) in a liquid scintillation counter using a “^32P program”. […]

[2] = target: JAK2 (Homo sapiens, UniProt O60674); test: Protein kinase assay ([γ-32P] ATP), JAK2
Method: as §1, §2, §3, §4, §5

[3] = target: Lck (Homo sapiens, UniProt P06239); test: Protein kinase assay ([γ-32P] ATP), Lck
Lck, sequence (P06239 whole entry): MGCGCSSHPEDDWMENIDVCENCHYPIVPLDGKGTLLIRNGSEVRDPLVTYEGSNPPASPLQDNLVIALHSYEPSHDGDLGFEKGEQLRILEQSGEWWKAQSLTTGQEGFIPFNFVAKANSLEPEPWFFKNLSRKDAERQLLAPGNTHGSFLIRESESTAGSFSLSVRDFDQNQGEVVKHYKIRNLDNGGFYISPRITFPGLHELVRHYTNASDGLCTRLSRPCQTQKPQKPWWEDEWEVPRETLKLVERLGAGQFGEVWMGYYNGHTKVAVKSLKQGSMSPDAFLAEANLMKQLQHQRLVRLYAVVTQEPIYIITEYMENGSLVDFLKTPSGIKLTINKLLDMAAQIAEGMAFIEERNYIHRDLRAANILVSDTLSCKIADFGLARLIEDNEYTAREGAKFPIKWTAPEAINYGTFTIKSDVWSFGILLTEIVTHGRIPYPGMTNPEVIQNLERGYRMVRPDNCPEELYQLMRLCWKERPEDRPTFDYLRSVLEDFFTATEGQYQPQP
Method: as §1, §2, §3, §4, §5

[4] = target: MAPKAP-K2 (Homo sapiens, UniProt P49137); test: Protein kinase assay ([γ-32P] ATP), MAPKAP-K2
Method: as §1, §2, §3, §4, §5

[5] = target: MAPKAP-K3 (Homo sapiens, UniProt Q16644); test: Protein kinase assay ([γ-32P] ATP), MAPKAP-K3
Method: as §1, §2, §3, §4, §5

[6] = target: MKK6 (Homo sapiens, UniProt P52564); test: Protein kinase assay ([γ-32P] ATP), MKK6
MKK6, sequence (P52564 whole entry): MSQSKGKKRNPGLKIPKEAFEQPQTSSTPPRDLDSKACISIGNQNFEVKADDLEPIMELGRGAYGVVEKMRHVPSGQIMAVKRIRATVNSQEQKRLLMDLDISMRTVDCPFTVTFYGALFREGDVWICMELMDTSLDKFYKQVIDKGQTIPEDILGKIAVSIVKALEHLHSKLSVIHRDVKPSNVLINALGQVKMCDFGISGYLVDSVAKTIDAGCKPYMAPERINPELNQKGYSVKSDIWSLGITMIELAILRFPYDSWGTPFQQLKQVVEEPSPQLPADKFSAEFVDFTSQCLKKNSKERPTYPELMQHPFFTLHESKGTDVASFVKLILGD
Method: as §1, §2, §3, §4, §5

[7] = target: MST2 (Homo sapiens, UniProt Q13188); test: Protein kinase assay ([γ-32P] ATP), MST2
Method: as §1, §2, §3, §4, §5

[8] = target: NEK6 (Homo sapiens, UniProt Q9HC98); test: Protein kinase assay ([γ-32P] ATP), NEK6
NEK6, sequence (Q9HC98 whole entry): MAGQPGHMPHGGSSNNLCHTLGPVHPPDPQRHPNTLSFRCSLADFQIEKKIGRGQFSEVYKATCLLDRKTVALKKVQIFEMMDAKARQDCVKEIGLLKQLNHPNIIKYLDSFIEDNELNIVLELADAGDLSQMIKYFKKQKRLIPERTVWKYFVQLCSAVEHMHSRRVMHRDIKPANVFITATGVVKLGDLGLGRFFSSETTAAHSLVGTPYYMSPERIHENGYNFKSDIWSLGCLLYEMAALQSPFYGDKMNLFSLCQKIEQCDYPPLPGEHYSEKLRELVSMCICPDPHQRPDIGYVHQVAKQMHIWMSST
Method: as §1, §2, §3, §4, §5

[9] = target: p38b MAPK (Homo sapiens, UniProt Q15759); test: Protein kinase assay ([γ-32P] ATP), p38b MAPK
Method: as §1, §2, §3, §4, §5

[10] = target: PAK2 (Homo sapiens, UniProt Q13177); test: Protein kinase assay ([γ-32P] ATP), PAK2
PAK2, sequence (Q13177 whole entry): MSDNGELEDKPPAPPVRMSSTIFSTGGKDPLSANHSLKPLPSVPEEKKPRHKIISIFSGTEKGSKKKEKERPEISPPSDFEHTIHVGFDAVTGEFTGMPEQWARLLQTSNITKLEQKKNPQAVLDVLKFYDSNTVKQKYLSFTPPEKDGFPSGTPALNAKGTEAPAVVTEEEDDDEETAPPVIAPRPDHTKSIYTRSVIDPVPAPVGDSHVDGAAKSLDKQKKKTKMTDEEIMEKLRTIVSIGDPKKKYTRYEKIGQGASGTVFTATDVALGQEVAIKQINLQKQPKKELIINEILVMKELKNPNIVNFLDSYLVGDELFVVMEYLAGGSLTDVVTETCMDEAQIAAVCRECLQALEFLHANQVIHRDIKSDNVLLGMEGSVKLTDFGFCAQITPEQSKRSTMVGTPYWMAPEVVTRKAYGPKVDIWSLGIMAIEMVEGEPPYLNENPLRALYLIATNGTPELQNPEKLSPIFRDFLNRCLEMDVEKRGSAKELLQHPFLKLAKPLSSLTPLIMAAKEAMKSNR
Method: as §1, §2, §3, §4, §5

[11] = target: PKA (Homo sapiens, UniProt P17612); test: Protein kinase assay ([γ-32P] ATP), PKA
Method: as §1, §2, §3, §4, §5

[12] = target: PRK2 (Homo sapiens, UniProt Q16513); test: Protein kinase assay ([γ-32P] ATP), PRK2
PRK2, sequence (Q16513 whole entry, species assumed): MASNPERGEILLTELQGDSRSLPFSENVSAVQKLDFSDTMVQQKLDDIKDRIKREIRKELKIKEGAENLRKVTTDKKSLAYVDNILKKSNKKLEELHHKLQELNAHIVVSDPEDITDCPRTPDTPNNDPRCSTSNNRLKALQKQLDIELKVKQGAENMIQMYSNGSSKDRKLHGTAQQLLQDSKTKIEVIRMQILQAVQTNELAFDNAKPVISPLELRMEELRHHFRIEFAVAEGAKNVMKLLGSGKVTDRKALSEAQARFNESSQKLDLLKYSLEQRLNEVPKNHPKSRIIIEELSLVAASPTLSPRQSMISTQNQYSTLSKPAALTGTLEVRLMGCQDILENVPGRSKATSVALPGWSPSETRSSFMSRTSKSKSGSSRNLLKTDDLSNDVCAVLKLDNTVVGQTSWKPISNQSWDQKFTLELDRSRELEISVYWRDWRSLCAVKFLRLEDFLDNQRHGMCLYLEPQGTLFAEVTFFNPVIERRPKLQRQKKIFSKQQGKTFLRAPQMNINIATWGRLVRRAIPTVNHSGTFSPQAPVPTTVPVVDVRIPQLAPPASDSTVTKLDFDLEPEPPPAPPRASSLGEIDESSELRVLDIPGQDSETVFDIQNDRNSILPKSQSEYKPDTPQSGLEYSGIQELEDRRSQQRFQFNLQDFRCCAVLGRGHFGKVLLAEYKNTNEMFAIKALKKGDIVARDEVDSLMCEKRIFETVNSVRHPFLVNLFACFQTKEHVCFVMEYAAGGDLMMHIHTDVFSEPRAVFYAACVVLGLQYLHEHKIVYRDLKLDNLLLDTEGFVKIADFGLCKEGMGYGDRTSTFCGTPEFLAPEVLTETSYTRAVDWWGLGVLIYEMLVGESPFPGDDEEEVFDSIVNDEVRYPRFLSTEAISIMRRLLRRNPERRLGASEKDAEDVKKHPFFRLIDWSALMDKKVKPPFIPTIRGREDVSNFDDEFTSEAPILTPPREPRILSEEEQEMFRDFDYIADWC
Method: as §1, §2, §3, §4, §5

[13] = target: SGK1 (Homo sapiens, UniProt O00141); test: Protein kinase assay ([γ-32P] ATP), SGK1
SGK1, sequence (O00141 whole entry, species assumed): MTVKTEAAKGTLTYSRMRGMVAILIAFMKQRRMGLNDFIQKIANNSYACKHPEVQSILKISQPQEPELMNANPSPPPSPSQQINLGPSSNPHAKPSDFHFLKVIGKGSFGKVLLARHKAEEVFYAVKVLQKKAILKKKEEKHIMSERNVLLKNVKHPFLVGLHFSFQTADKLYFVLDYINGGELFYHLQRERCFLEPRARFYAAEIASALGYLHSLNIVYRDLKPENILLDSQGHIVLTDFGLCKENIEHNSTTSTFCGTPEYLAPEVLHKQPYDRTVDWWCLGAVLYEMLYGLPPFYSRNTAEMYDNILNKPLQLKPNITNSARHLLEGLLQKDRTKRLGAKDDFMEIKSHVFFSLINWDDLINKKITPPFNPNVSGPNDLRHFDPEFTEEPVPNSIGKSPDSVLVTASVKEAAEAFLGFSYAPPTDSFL
Method: as §1, §2, §3, §4, §5

[14] = target: Src (Homo sapiens, UniProt P12931); test: Protein kinase assay ([γ-32P] ATP), Src
Src, sequence (P12931 whole entry, species assumed): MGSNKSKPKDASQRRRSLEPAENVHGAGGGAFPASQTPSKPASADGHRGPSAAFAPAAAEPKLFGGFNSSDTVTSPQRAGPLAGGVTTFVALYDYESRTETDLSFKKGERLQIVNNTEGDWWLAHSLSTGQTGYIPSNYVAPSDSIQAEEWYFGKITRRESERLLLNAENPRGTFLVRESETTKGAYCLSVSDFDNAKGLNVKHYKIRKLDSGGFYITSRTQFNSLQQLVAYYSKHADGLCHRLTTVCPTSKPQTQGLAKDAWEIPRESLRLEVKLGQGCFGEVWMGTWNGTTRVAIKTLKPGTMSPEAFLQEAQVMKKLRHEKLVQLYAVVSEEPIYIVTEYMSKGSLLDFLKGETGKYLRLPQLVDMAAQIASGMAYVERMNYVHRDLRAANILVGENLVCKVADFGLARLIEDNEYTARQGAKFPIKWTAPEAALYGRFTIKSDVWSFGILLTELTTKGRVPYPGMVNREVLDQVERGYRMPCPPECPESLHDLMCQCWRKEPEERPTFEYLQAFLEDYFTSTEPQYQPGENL
Method: as §1, §2, §3, §4, §5

[15] = target: SYK (Homo sapiens, UniProt P43405); test: Protein kinase assay ([γ-32P] ATP), SYK
Method: as §1, §2, §3, §4, §5

[16] = target: TBK1 (Homo sapiens, UniProt Q9UHD2); test: Protein kinase assay ([γ-32P] ATP), TBK1
Method: as §1, §2, §3, §4, §5

[17] = target: TTBK1 (Homo sapiens, UniProt Q5TCY1); test: Protein kinase assay ([γ-32P] ATP), TTBK1
Method: as §1, §2, §3, §4, §5

[18] = 0.1 μM of compound I-1, DMSO control = 100%
[19] = 1 μM of compound I-1, DMSO control = 100%

HIPK3, sequence (Q9H422 whole entry): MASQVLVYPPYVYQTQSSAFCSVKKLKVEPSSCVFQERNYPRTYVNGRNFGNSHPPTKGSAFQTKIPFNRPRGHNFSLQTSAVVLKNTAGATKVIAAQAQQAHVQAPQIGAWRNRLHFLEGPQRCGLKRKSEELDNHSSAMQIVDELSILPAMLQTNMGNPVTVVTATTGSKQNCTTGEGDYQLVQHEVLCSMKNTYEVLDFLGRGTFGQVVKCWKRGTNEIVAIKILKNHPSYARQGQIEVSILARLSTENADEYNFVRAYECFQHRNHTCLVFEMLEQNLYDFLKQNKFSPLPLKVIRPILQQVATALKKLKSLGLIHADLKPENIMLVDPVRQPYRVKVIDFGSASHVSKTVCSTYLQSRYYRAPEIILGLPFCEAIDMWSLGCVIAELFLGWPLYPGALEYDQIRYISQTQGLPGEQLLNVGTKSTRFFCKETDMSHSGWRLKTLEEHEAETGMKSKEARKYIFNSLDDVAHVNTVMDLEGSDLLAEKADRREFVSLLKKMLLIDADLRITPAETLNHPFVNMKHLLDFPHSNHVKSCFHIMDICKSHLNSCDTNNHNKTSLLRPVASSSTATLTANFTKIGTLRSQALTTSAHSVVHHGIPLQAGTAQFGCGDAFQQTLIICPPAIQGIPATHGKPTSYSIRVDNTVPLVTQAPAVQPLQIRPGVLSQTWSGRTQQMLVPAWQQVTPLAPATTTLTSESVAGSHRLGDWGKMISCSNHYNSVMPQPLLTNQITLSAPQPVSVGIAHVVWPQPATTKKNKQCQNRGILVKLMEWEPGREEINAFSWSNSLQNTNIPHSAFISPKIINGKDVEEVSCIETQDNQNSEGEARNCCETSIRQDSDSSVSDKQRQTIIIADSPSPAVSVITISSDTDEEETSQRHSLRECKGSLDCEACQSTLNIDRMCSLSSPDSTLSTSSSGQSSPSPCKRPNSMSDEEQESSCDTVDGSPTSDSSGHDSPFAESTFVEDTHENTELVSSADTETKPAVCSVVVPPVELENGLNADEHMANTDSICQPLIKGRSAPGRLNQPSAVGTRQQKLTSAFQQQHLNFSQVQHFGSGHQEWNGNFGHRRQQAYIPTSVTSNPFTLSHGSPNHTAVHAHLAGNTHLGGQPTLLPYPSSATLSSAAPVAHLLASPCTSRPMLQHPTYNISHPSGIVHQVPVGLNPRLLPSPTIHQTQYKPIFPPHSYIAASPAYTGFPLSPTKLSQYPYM

Cc1cccc(C)c1NC(=O)N1C/C=C\COc2cccc(c2)Nc2cc1ncn2 [Compound I-1]
remaining activity at 0.1 µM [1, 18]: 89% | remaining activity at 1 µM [1, 19]: 81% | remaining activity at 0.1 µM [2, 18]: 100% | remaining activity at 1 µM [2, 19]: 72% | remaining activity at 0.1 µM [3, 18]: 4% | remaining activity at 1 µM [3, 19]: 3% | remaining activity at 0.1 µM [4, 18]: 88% | remaining activity at 1 µM [4, 19]: 84% | remaining activity at 0.1 µM [5, 18]: 108% | remaining activity at 1 µM [5, 19]: 89% | remaining activity at 0.1 µM [6, 18]: 101% | remaining activity at 1 µM [6, 19]: 93% | remaining activity at 0.1 µM [7, 18]: 99% | remaining activity at 1 µM [7, 19]: 98% | remaining activity at 0.1 µM [8, 18]: 91% | remaining activity at 1 µM [8, 19]: 87% | remaining activity at 0.1 µM [9, 18]: 83% | remaining activity at 1 µM [9, 19]: 29% | remaining activity at 0.1 µM [10, 18]: 100% | remaining activity at 1 µM [10, 19]: 77% | remaining activity at 0.1 µM [11, 18]: 105% | remaining activity at 1 µM [11, 19]: 88% | remaining activity at 0.1 µM [12, 18]: 112% | remaining activity at 1 µM [12, 19]: 87% | remaining activity at 0.1 µM [13, 18]: 96% | remaining activity at 1 µM [13, 19]: 100% | remaining activity at 0.1 µM [14, 18]: 25% | remaining activity at 1 µM [14, 19]: 24% | remaining activity at 0.1 µM [15, 18]: 100% | remaining activity at 1 µM [15, 19]: 91% | remaining activity at 0.1 µM [16, 18]: 109% | remaining activity at 1 µM [16, 19]: 83% | remaining activity at 0.1 µM [17, 18]: 115% | remaining activity at 1 µM [17, 19]: 80%
